This note sets out measurements from patent US11957680B2, “Pyruvate kinase activators for use in treating blood disorders” (Agios Pharmaceuticals, Inc., priority 2017, dated 2024).

Test [1] addresses T1, wild type PKR (Homo sapiens, UniProt P30613). Put plainly: PKR (wild type) enzyme AC50 assay, LDH/NADH-coupled, absorbance at 340 nm. It counts as biochemical. The note with it: Table 4; AC50, enzyme assay; read-out: PKR WT. The essentials:
(§1)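 LDH/NADH-coupled read-out at 340 nm after ADP (0.2-1.65 mM) addition at room temperature. Beforehand, wild-type, K410E or R510Q human PKR (40-400 ng/well) sat 60 min with compound (top 100 μM, 3-fold, 11 points) plus PEP 0.1-0.5 mM, 180 μM NADH in 50 mM Tris pH 7.5, 100 mM KCl, 5 mM MgCl2, 1 mM DTT, 0.03% BSA.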

The next test addresses PKR K410E (Homo sapiens, UniProt P30613, K410E). Put plainly: PKR mutant assay (K410E), AC50, LDH/NADH-coupled, absorbance at 340 nm. It counts as biochemical. The note with it: Table 4; AC50, enzyme assay. The essentials: as §1
A further test concerns the target PKR R510Q (Homo sapiens, UniProt P30613, R510Q). Put plainly: PKR mutant assay (R510Q), AC50, LDH/NADH-coupled, absorbance at 340 nm. It counts as biochemical. The note with it: Table 4, AC50, enzyme assay; for EC50: read-out: PK R510Q. In outline: as §1
Test [2] has as its target T1, wild type PKR. Put plainly: Cell based ATP assay in purified red blood cells (Cell-Titer-Glo). The note with it: Table 4; AC50, RBCs, overnight at 37° C., ATP levels. Details: endogenous in cells; host or cells: purified red blood cells from healthy volunteers. In outline: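 ATP levels were quantified by Cell-Titer-Glo after overnight 37 °C exposure of cells to compound (1:4 dilution series, 0.1% DMSO final). The cells were human erythrocytes, filter-purified to remove leukocytes and plated at 1×10^7 cells/mL in AGAM medium.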

Bounds are passed on as bounds.

PKR R510Q, sequence (P30613 whole entry R510Q): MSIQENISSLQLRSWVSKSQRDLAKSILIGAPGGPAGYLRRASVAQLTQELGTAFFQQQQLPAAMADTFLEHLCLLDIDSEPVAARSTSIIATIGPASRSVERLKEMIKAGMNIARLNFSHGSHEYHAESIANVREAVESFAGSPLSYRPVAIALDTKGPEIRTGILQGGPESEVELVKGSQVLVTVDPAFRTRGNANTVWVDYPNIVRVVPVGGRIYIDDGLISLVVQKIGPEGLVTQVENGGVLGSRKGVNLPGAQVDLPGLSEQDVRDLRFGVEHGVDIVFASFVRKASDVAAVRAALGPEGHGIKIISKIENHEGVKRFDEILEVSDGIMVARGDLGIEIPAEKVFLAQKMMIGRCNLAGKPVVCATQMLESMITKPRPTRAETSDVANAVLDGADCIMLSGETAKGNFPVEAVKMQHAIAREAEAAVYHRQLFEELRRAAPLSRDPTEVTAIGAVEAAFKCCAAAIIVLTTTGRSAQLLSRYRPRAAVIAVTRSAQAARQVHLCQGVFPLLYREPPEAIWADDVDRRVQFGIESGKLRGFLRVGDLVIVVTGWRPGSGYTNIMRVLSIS
PKR K410E, sequence (P30613 whole entry K410E): as the sequence (P30613 whole entry R510Q) above, with K410E, Q510R counted along it
T1 sequence (P30613 whole entry): as the sequence (P30613 whole entry R510Q) above, with Q510R counted along it

With `Cn1c2nc(Cc3c[nH]nn3)sc2c2cnn(Cc3ccc(OC(F)(F)F)cc3)c(=O)c21` [Compound 295], the EC50 on wild type PKR [1] was below 300 nM; on PKR K410E it was below 300 nM; on PKR R510Q, below 300 nM; on wild type PKR [2] it was at most 1000 nM.

Regarding `Cn1c2nc([C@@H](O)c3cc[nH]n3)sc2c2cnn(Cc3cccc4[nH]ncc34)c(=O)c21` [Compound 304], the EC50 on wild type PKR [1] was below 300 nM; on PKR K410E it was below 300 nM; on PKR R510Q, below 300 nM; on wild type PKR [2], at most 1000 nM.

On to `Cn1c2nc([C@H](O)c3cc[nH]n3)sc2c2cnn(Cc3cccc4[nH]ncc34)c(=O)c21` [Compound 305], for which the EC50 at wild type PKR [1] is below 300 nM; at PKR K410E, below 300 nM; on PKR R510Q, below 300 nM; on wild type PKR [2] it was at most 1000 nM.

Turning to `Cn1c2nc(Cc3cc[nH]n3)sc2c2cnn(Cc3cccc4[nH][nH]c(=O)c34)c(=O)c21` [Compound 307], the EC50 on wild type PKR [1] is below 300 nM; on PKR K410E, below 300 nM; at PKR R510Q it was below 300 nM; at wild type PKR [2] it was at most 1000 nM.

Consider `Cn1c2nc(Cc3cn[nH]n3)sc2c2cnn(Cc3cccc(OC(F)(F)F)c3F)c(=O)c21` [Compound 329], for which the EC50 on wild type PKR [1] was 301 to 800 nM; at PKR K410E it was 301 to 800 nM; on PKR R510Q, below 300 nM; on wild type PKR [2], at most 1000 nM.

As for `Cn1c2nc(Cc3cc[nH]n3)sc2c2cnn(Cc3cccc(O)c3)c(=O)c21` [Compound 369], the EC50 at wild type PKR [1] is below 300 nM; on PKR K410E, below 300 nM; on PKR R510Q, below 300 nM; at wild type PKR [2], at most 1000 nM.

With `Cn1c2nc(Cc3cc[nH]n3)sc2c2cnn(Cc3n[nH]c4ccccc34)c(=O)c21` [Compound 372], the EC50 on wild type PKR [1] is below 300 nM; on PKR K410E it was below 300 nM; at PKR R510Q, below 300 nM; at wild type PKR [2] it was at most 1000 nM.

For the compound `Cn1c2nc(Cc3cc[nH]n3)sc2c2cnn(Cc3n[nH]c4ncccc34)c(=O)c21` [Compound 374], the EC50 on wild type PKR [1] is below 300 nM; at PKR K410E, below 300 nM; at PKR R510Q, below 300 nM; at wild type PKR [2] it was at most 1000 nM.

Consider `Cn1c2nc(Cc3cc[nH]n3)sc2c2cnn(Cc3n[nH]c4cccnc34)c(=O)c21` [Compound 379], for which the EC50 was below 300 nM at wild type PKR [1], below 300 nM at PKR K410E, below 300 nM on PKR R510Q and at most 1000 nM at wild type PKR [2].

In the case of `Cn1c2nc(Cc3cc[nH]n3)sc2c2cnn(Cc3ccc4cc[nH]c4n3)c(=O)c21` [Compound 380], the EC50 on wild type PKR [1] is below 300 nM; on PKR K410E, below 300 nM; on PKR R510Q, below 300 nM; on wild type PKR [2], at most 1000 nM.

On to `Cn1c2nc(Cc3cc[nH]n3)sc2c2cnn(Cc3ccc4nc[nH]c4n3)c(=O)c21` [Compound 381], for which the EC50 on wild type PKR [1] is below 300 nM; at PKR K410E, below 300 nM; at PKR R510Q, below 300 nM; on wild type PKR [2], at most 1000 nM.

For the compound `Cn1c2nc(Cc3n[nH]cc3F)sc2c2cnn(Cc3ccccc3)c(=O)c21` [Compound 382], the EC50 is below 300 nM on wild type PKR [1], below 300 nM on PKR K410E, below 300 nM at PKR R510Q and at most 1000 nM on wild type PKR [2].

In the case of `Cn1c2nc(Cc3cc[nH]n3)sc2c2cnn(Cc3ccc4c(F)c[nH]c4n3)c(=O)c21` [Compound 383], the EC50 was below 300 nM at wild type PKR [1], below 300 nM on PKR K410E, below 300 nM at PKR R510Q and at most 1000 nM at wild type PKR [2].

With `Cn1c2nc(Cc3cc[nH]n3)sc2c2cnn(Cc3ccc4c(n3)NCC4)c(=O)c21` [Compound 384], the EC50 is below 300 nM on wild type PKR [1], below 300 nM at PKR K410E, below 300 nM at PKR R510Q and at most 1000 nM on wild type PKR [2].

`Cn1c2nc(Cc3cc[nH]n3)sc2c2cnn(CCc3cccc(N)n3)c(=O)c21` [Compound 385]: the EC50 at wild type PKR [1] was below 300 nM; at PKR K410E, below 300 nM; on PKR R510Q it was below 300 nM; at wild type PKR [2], at most 1000 nM.

On to `Cn1c2nc(Cc3cc[nH]n3)sc2c2cnn(Cc3ccc4oc(=O)[nH]c4n3)c(=O)c21` [Compound 386], for which the EC50 at wild type PKR [1] is below 300 nM; on PKR K410E it was below 300 nM; at PKR R510Q, below 300 nM; on wild type PKR [2], at most 1000 nM.

As for `Cn1c2nc(Cc3cc[nH]n3)sc2c2cnn(Cc3ccc4c(n3)NC(=O)C4)c(=O)c21` [Compound 387], the EC50 is 301 to 800 nM on wild type PKR [1], below 300 nM at PKR K410E, below 300 nM on PKR R510Q and above 1000 nM at wild type PKR [2].

On to `Cn1c2nc(Cc3cc[nH]n3)sc2c2cnn(Cc3ccc4cc(Cl)[nH]c4n3)c(=O)c21` [Compound 388], for which the EC50 at wild type PKR [1] was below 300 nM; at PKR K410E, below 300 nM; on PKR R510Q, below 300 nM; at wild type PKR [2], at most 1000 nM.

Consider `Cn1cc(Cc2nc3c(s2)c2cnn(Cc4cccc(C(N)=O)c4)c(=O)c2n3C)cn1` [Compound 389], for which the EC50 was above 800 nM on wild type PKR [1], above 800 nM at PKR K410E, 301 to 800 nM at PKR R510Q and above 1000 nM on wild type PKR [2].

As to `Cn1c2nc(Cn3ccnc3)sc2c2cnn(Cc3cccc(C(N)=O)c3)c(=O)c21` [Compound 390], the EC50 at wild type PKR [1], at PKR K410E and on PKR R510Q was above 800 nM throughout. In addition, the “Cell based ATP assay” value at wild type PKR [2] is reported as “No Fit”.

Turning to `Cn1c2nc(Cc3cc[nH]n3)sc2c2cnn(Cc3ccc4cc(F)[nH]c4n3)c(=O)c21` [Compound 391], the EC50 at wild type PKR [1] is below 300 nM; on PKR K410E, below 300 nM; on PKR R510Q, below 300 nM; at wild type PKR [2] it was at most 1000 nM.

Regarding `Cn1ccc(CCn2ncc3c4sc(Cc5cc[nH]n5)nc4n(C)c3c2=O)n1` [Compound 392], the EC50 was below 300 nM on wild type PKR [1], below 300 nM at PKR K410E, below 300 nM on PKR R510Q and at most 1000 nM at wild type PKR [2].

Take `Cn1ccc(Cn2ncc3c4sc(CCc5cc[nH]n5)nc4n(C)c3c2=O)n1` [Compound 393]: the EC50 at wild type PKR [1] is below 300 nM; on PKR K410E, below 300 nM; on PKR R510Q, below 300 nM; at wild type PKR [2], at most 1000 nM.

Take `Cn1c2nc(CCc3cc[nH]n3)sc2c2cnn(Cc3cccc(N)n3)c(=O)c21` [Compound 394]: the EC50 at wild type PKR [1] was below 300 nM; on PKR K410E it was below 300 nM; at PKR R510Q it was below 300 nM; at wild type PKR [2], at most 1000 nM.

Consider `Cc1nc2c(s1)c1cnn(Cc3cccc(C(N)=O)c3)c(=O)c1n2C` [Compound 395], for which the EC50 at wild type PKR [1] was above 800 nM; at PKR K410E it was 301 to 800 nM; at PKR R510Q, above 800 nM; on wild type PKR [2], above 1000 nM.

Regarding `Cn1c2nc(Oc3ccn[nH]3)sc2c2cnn(Cc3cccc(N)n3)c(=O)c21` [Compound 396], the EC50 at wild type PKR [1] is below 300 nM; on PKR K410E it was below 300 nM; on PKR R510Q it was below 300 nM; on wild type PKR [2], at most 1000 nM.

For the compound `Cn1c2nc(Cc3cc[nH]n3)sc2c2cnn(CC3CCCCC3)c(=O)c21` [Compound 397], the EC50 at wild type PKR [1], on PKR K410E and at PKR R510Q was above 800 nM in each case. For the same compound, the “Cell based ATP assay” value at wild type PKR [2] is reported as “No Fit”.

`C=CCn1ncc2c3sc(Cc4ccccn4)nc3n(C)c2c1=O` [Compound 398]: the EC50 on wild type PKR [1], on PKR K410E and at PKR R510Q was above 800 nM in each case. For the same compound, the “Cell based ATP assay” value on wild type PKR [2] is listed as “No Fit”.

Regarding `Cn1c2nc(Cc3cc[nH]n3)sc2c2cnn(CCc3cccnc3)c(=O)c21` [Compound 399], the EC50 at wild type PKR [1], at PKR K410E and at PKR R510Q was above 800 nM each time. Besides, the “Cell based ATP assay” value on wild type PKR [2] is “No Fit”.

With `Cn1ccc(CCn2ncc3c4sc(Cc5cccnc5)nc4n(C)c3c2=O)n1` [Compound 400], the EC50 at wild type PKR [1] is above 800 nM; at PKR K410E, above 800 nM; on PKR R510Q it was above 800 nM; at wild type PKR [2], above 1000 nM.

Consider `Cn1c2nc(Cc3cc[nH]n3)sc2c2cnn(CCc3cscn3)c(=O)c21` [Compound 401], for which the EC50 at wild type PKR [1] is below 300 nM; on PKR K410E, below 300 nM; on PKR R510Q it was below 300 nM; at wild type PKR [2] it was at most 1000 nM.

Regarding `CCn1c2nc(Cc3cc[nH]n3)sc2c2cnn(Cc3ccccc3)c(=O)c21` [Compound 402], the EC50 on wild type PKR [1], at PKR K410E and on PKR R510Q was above 800 nM throughout. Besides, the “Cell based ATP assay” value at wild type PKR [2] is reported as “No Fit”.

As to `Cn1c2nc(Cc3ccccn3)sc2c2cnn(CC3CCOCC3)c(=O)c21` [Compound 403], the EC50 on wild type PKR [1], at PKR K410E and at PKR R510Q was above 800 nM throughout. In addition, the “Cell based ATP assay” value at wild type PKR [2] was “No Fit”.

As to `C#CCn1ncc2c3sc(Cc4ccccn4)nc3n(C)c2c1=O` [Compound 404], the EC50 is below 300 nM on wild type PKR [1], below 300 nM at PKR K410E, below 300 nM on PKR R510Q and at most 1000 nM at wild type PKR [2].

With `O=c1c2c(cnn1Cc1ccccc1)c1sc(Cc3ccccn3)nc1n2-c1ccccc1` [Compound 405], the EC50 on wild type PKR [1] is above 800 nM. Further, the “PKR K410E” value on PKR K410E is “No Fit”. The “PK R510Q” value at PKR R510Q is recorded as “No Fit”. Moreover, the “Cell based ATP assay” value at wild type PKR [2] was “No Fit”.

On to `Cn1ccc(Cn2ncc3c4sc(CCc5cccnc5)nc4n(C)c3c2=O)n1` [Compound 406], for which the EC50 at wild type PKR [1], on PKR K410E and at PKR R510Q was above 800 nM in each case. On wild type PKR [2], the “Cell based ATP assay” value is recorded as “No Fit”.
